Patent US10034477B2, “Pyrido-1,3-oxazine-2,4-dione compounds with fungicidal activity” (Dow AgroSciences LLC, priority 2016, dated 2018)
Like-named read-outs stand apart in the source and are kept apart here.

Legend:
Puccinia triticina = test: Fungicidal activity: wheat brown rust (PUCCRT), disease control on wheat seedlings; assay type: in vivo; details: LV activity at 121.5 g/H, wheat (variety Yuma)
Experimental: (§1) Technical grades of materials were dissolved in acetone, which were then mixed with nine volumes of water (H2O) containing 110 ppm Triton X-100. The fungicide solutions were applied onto wheat seedlings using an automated booth sprayer to run-off. All sprayed plants were allowed to air dry prior to further handling. All fungicides were evaluated using the aforementioned method for their activity vs. all target diseases, unless stated otherwise. Wheat leaf blotch and brown rust activity were also evaluated using track spray applications, in which case the fungicides were formulated as EC formulations, containing 0.1% Trycol 5941 in the spray solutions. Wheat plants (variety Yuma) were grown from seed in a greenhouse in 50% mineral soil/50% soil-less Metro mix until the first leaf was fully emerged, with 7-10 seedlings per pot. These plants were inoculated with an aqueous spore suspension of Zymoseptoria tritici either prior to or after fungicide treatments. After inoculation the plants were kept in 100% relative humidity (one day in a dark dew chamber followed by two to three days in a lighted dew chamber at 20° C.) to permit spores to germinate and infect the leaf. The plants were then transferred to a greenhouse set at 20° C. for disease to develop. When disease symptoms were fully expressed on the 1st leaves of untreated plants, infection levels were assessed on a scale of 0 to 100 percent disease severity. Percent disease control was calculated using the ratio of disease severity on treated plants relative to untreated plants. Wheat plants (variety Yuma) were grown from seed in a greenhouse in 50% mineral soil/50% soil-less Metro mix until the first leaf was fully emerged, with 7-10 seedlings per pot. These plants were inoculated with an aqueous spore suspension of Puccinia triticina either prior to or after fungicide treatments. After inoculation the plants were kept in a dark dew room at 22° C. with 100% relative humidity overnight to permit spores to germinate and infect the leaf. The plants were then transferred to a greenhouse set at 24° C. for disease to develop. Fungicide formulation, application and disease assessment followed the procedures as described in the Example A. Results of the evaluations are shown below in Table 4.

Phakopsora pachyrhizi = test: Fungicidal activity: Asian soybean rust (PHAKPA), disease control on soybean seedlings; assay type: in vivo; details: soybean (variety Williams 82)
Experimental: Technical grades of materials were dissolved in acetone, which were then mixed with nine volumes of H2O containing 0.011% Tween 20. The fungicide solutions were applied onto soybean seedlings using an automated booth sprayer to run-off. All sprayed plants were allowed to air dry prior to further handling. Soybean plants (variety Williams 82) were grown in soil-less Metro mix, with one plant per pot. Two week old seedlings were used for testing. Plants were inoculated either 3 days prior to or 1 day after fungicide treatments. Plants were incubated for 24 h in a dark dew room at 22° C. and 100% relative humidity then transferred to a growth room at 23° C. for disease to develop. Disease severity was assessed on the sprayed leaves.

Zymoseptoria tritici = test: Fungicidal activity: leaf blotch of wheat (SEPTTR), disease control on wheat seedlings; assay type: in vivo; details: LV activity at 121.5 g/H, wheat (variety Yuma)
Experimental: as §1, with “plants.” for “plants. Wheat plants (variety Yuma) were grown from seed in a greenhouse in 50% mineral soil/50% soil-less Metro mix until the first leaf was fully emerged, with 7-10 seedlings per pot. These plants were inoculated with an aqueous spore suspension of Puccinia triticina either prior to or after fungicide treatments. After inoculation the plants were kept in a dark dew room at 22° C. with 100% relative humidity overnight to permit spores to germinate and infect the leaf. The plants were then transferred to a greenhouse set at 24° C. for disease to develop. Fungicide formulation, application and disease assessment followed the procedures as described in the Example A. Results of the evaluations are shown below in Table 4.”

[1] = 24 h, 1 Day Protectant, read-out: PUCCRT 1DP disease control rating
[2] = 72 h, 3 Day Curative, read-out: PUCCRT 3DC disease control rating
[3] = 24 h, 1 Day Protectant, read-out: PHAKPA 1DP disease control rating
[4] = 72 h, 3 Day Curative, read-out: PHAKPA 3DC disease control rating
[5] = 24 h, 1 Day Protectant, read-out: SEPTTR 1DP disease control rating
[6] = 72 h, 3 Day Curative, read-out: SEPTTR 3DC disease control rating

| melting point | Structure (SMILES) | pest or weed control at 121.5 g/ha (Puccinia triticina; [1]) | pest or weed control at 121.5 g/ha (Puccinia triticina; [2]) | pest or weed control at 25 ppm (Phakopsora pachyrhizi; [3]) | pest or weed control at 25 ppm (Phakopsora pachyrhizi; [4]) | pest or weed control at 121.5 g/ha (Zymoseptoria tritici; [5]) | pest or weed control at 121.5 g/ha (Zymoseptoria tritici; [6]) |
| --- | --- | --- | --- | --- | --- | --- | --- |
| – | COc1ccc(C(c2ccc(OC)cc2)[C@H](C)OC(=O)[C@H](C)n2c(=O)oc3c(OC)ccnc3c2=O)cc1 [Compound 18] | > 80% | ≤ 80% | ≤ 80% | ≤ 80% | > 80% | > 80% |
| – | COc1ccnc2c(=O)n([C@@H](C)C(=O)O[C@H](C)C(c3ccc(F)cc3)c3ccc(F)cc3)c(=O)oc12 [Compound 29] | – | – | – | ≤ 80% | – | ≤ 80% |
| – | COc1ccnc2c(=O)n([C@@H](C)C(=O)O[C@@H](C)C(c3ccc(C)cc3)c3ccc(C)cc3)c(=O)oc12 [Compound 32, (S)-1,1-di-p-tolylpropan-2-yl-(S)-2-(8-methoxy-2,4-dioxo-2H-pyrido[2,3-e][1,3]oxazin-3(4H)-yl)propanoate] | > 80% | ≤ 80% | ≤ 80% | ≤ 80% | > 80% | > 80% |
| – | CCCCC[C@H](OC(=O)[C@H](C)n1c(=O)oc2c(OC)ccnc2c1=O)[C@@H](C)Oc1ccccc1 [Compound 13] | – | – | – | ≤ 80% | ≤ 80% | ≤ 80% |
| – | COc1ccc(O[C@@H](C)[C@H](OC(=O)[C@H](C)n2c(=O)oc3c(OC)ccnc3c2=O)C(C)C)cc1 [Compound 23] | > 80% | > 80% | > 80% | ≤ 80% | ≤ 80% | > 80% |
| 68 to 84 °C | COc1ccnc2c(=O)n([C@@H](C)C(=O)O[C@@H](C)C(c3ccc(F)cc3)c3ccc(F)cc3)c(=O)oc12 [Compound 1] | > 80% | ≤ 80% | ≤ 80% | – | > 80% | > 80% |
| – | COc1ccnc2c(=O)n([C@H](C)C(=O)O[C@H](C)C(c3ccc(F)cc3)c3ccc(F)cc3)c(=O)oc12 [Compound 34] | – | – | ≤ 80% | ≤ 80% | – | – |
| – | COc1ccnc2c(=O)n([C@@H](C)C(=O)O[C@@H](C)C(c3ccc(Cl)cc3)c3ccc(Cl)cc3)c(=O)oc12 [Compound 27] | ≤ 80% | – | ≤ 80% | ≤ 80% | > 80% | > 80% |
| – | COc1ccnc2c(=O)n([C@@H](C)C(=O)O[C@@H](C)[C@@H](c3ccc(C)cc3)c3ccc(F)cc3C)c(=O)oc12 [Compound 33] | > 80% | ≤ 80% | > 80% | ≤ 80% | > 80% | > 80% |
| – | COc1ccnc2c(=O)n([C@@H](C)C(=O)O[C@@H](C)[C@@H](c3ccccc3)c3ccc(F)c(C)c3)c(=O)oc12 [Compound 22] | > 80% | ≤ 80% | ≤ 80% | ≤ 80% | > 80% | > 80% |
| – | COc1ccnc2c(=O)n([C@@H](C)C(=O)O[C@H](C(C)C)[C@H](C)Oc3ccc(C)cc3)c(=O)oc12 [Compound 30] | > 80% | ≤ 80% | ≤ 80% | – | ≤ 80% | ≤ 80% |
| – | COc1ccnc2c(=O)n([C@@H](C)C(=O)O[C@@H](C)[C@H](c3ccc(C)cc3)c3ccc(C)cc3F)c(=O)oc12 [Compound 25] | > 80% | ≤ 80% | ≤ 80% | – | > 80% | > 80% |
| – | COc1ccnc2c(=O)n([C@@H](C)C(=O)O[C@@H](C)[C@H](Oc3ccccc3Cl)c3ccccc3)c(=O)oc12 [Compound 21] | > 80% | – | – | ≤ 80% | > 80% | ≤ 80% |
| – | CCC[C@@H](Oc1ccc(C)cc1)[C@H](C)OC(=O)[C@H](C)n1c(=O)oc2c(OC)ccnc2c1=O [Compound 31] | > 80% | ≤ 80% | ≤ 80% | ≤ 80% | – | ≤ 80% |
| – | CCC[C@H](OC(=O)[C@H](C)n1c(=O)oc2c(OC)ccnc2c1=O)[C@@H](C)Oc1ccccc1 [Compound 35] | – | – | – | ≤ 80% | – | ≤ 80% |
| – | COc1ccnc2c(=O)n([C@@H](C)C(=O)O[C@@H](C)[C@H](Oc3cccc(F)c3)C(C)C)c(=O)oc12 [Compound 24] | > 80% | > 80% | > 80% | ≤ 80% | ≤ 80% | > 80% |
| – | COc1ccnc2c(=O)n([C@@H](C)C(=O)O[C@@H](C)[C@@H](c3ccc(F)cc3)c3ccc(F)cc3C)c(=O)oc12 [Compound 19] | > 80% | ≤ 80% | > 80% | ≤ 80% | > 80% | > 80% |
| – | COc1cc(Cl)ccc1C(c1ccc(Cl)cc1OC)[C@H](C)OC(=O)[C@H](C)n1c(=O)oc2c(OC)ccnc2c1=O [Compound 26] | > 80% | – | ≤ 80% | – | > 80% | > 80% |
| – | COc1ccnc2c(=O)n([C@@H](C)C(=O)O[C@@H](C)[C@@H](c3ccccc3)c3ccc(C(F)(F)F)cc3)c(=O)oc12 [Compound 28] | ≤ 80% | ≤ 80% | – | ≤ 80% | > 80% | > 80% |
